Measurements published in patent US20240067657A1, “AMIDO-SUBSTITUTED PYRIDYL COMPOUNDS AND METHODS OF USE THEREOF FOR THE TREATMENT OF HERPESVIRUSES” (Merck Sharp & Dohme LLC, priority 2020, published 2024).
Where two headings read alike, the source gives them in different places.

Columns and labels:
[1] = system: VZV in MeWo or MRC5 cells; assay: Viral qPCR assay VZV (V0/V1, V2/V3), EC50; type: cell-based; details: 10%
Outline: (§1)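 Infected cells added to compounds (10-point 3-fold series), ~72 h at 37 °C, then lysed; viral genomes by TaqMan qPCR against plasmid standard, normalized to PPIA in V0/V1 only, EC50 from 4-parameter fit. HCMV AD169, 0.05-0.1 pfu/cell, ± 50% FBS; VZV 0.04-0.1 pfu/cell; HSV-1 F 0.0005-0.004 pfu/cell.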

[2] = system: HSV-1 Strain F in Vero or MRC5 cells; assay: Viral qPCR assay HSV-1 (V0/V1, V2/V3), EC50; type: cell-based; details: 10%
Outline: as §1

[3] = target: T1, Human cytomegalovirus DNA polymerase (Human cytomegalovirus, UniProt P08546); assay: HCMV polymerase assay (AlphaLISA, IC50); type: biochemical; details: polymerase assay of Example 190
T1 construct: made in house; host or cells: SF21 insect cells (baculovirus vector)
T1 sequence (P08546 whole entry): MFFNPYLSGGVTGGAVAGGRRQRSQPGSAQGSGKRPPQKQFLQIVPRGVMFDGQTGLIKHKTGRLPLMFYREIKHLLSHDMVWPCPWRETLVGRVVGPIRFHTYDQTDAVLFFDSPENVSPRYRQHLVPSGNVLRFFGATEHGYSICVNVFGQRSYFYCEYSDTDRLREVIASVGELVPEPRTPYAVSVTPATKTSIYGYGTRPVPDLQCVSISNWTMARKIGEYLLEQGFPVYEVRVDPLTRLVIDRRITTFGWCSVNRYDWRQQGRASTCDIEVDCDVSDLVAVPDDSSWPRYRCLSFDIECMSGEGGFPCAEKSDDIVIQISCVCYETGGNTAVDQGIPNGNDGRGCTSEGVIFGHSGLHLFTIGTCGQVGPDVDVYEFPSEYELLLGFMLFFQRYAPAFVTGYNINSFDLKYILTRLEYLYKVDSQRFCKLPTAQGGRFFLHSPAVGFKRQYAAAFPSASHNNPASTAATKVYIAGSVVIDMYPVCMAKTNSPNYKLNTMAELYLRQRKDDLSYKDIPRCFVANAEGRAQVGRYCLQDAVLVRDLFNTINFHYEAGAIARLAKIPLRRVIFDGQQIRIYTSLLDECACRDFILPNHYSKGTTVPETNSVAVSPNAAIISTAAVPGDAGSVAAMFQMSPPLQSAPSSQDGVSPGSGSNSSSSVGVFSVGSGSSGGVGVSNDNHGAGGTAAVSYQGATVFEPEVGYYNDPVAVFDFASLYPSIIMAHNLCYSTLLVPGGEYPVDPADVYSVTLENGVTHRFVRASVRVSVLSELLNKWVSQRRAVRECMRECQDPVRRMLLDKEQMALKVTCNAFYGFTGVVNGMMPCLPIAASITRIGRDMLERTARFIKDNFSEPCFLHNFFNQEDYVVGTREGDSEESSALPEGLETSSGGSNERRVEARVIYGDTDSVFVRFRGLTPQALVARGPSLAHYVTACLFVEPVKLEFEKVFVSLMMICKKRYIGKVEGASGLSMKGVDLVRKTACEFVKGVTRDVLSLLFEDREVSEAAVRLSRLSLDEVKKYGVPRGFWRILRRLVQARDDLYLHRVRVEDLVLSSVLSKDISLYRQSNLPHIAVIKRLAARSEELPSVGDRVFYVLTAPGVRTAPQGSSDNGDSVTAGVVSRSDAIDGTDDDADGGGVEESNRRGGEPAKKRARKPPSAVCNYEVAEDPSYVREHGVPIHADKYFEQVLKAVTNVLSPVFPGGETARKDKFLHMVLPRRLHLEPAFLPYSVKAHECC
Outline: (§2)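 Baculovirus-expressed polymerase (HCMV 0.2 nM, VZV 0.4 nM final) preincubated 30 min at room temperature with compound in pH 7.5 HEPES buffer; reaction started with 1.6 nM DIG-primer/template and nM dNTPs including biotin-dUTP, run 60 min at 37° C. Incorporation detected by AlphaLISA; IC50 from 4-parameter fit.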

[4] = target: T2, varicella zoster virus DNA polymerase (Varicella-zoster virus, UniProt P09252); assay: VZV polymerase assay (AlphaLISA, IC50); type: biochemical; details: polymerase assay of Example 190
T2 construct: made in house; host or cells: SF21 insect cells (baculovirus vector)
T2 sequence (P09252 whole entry): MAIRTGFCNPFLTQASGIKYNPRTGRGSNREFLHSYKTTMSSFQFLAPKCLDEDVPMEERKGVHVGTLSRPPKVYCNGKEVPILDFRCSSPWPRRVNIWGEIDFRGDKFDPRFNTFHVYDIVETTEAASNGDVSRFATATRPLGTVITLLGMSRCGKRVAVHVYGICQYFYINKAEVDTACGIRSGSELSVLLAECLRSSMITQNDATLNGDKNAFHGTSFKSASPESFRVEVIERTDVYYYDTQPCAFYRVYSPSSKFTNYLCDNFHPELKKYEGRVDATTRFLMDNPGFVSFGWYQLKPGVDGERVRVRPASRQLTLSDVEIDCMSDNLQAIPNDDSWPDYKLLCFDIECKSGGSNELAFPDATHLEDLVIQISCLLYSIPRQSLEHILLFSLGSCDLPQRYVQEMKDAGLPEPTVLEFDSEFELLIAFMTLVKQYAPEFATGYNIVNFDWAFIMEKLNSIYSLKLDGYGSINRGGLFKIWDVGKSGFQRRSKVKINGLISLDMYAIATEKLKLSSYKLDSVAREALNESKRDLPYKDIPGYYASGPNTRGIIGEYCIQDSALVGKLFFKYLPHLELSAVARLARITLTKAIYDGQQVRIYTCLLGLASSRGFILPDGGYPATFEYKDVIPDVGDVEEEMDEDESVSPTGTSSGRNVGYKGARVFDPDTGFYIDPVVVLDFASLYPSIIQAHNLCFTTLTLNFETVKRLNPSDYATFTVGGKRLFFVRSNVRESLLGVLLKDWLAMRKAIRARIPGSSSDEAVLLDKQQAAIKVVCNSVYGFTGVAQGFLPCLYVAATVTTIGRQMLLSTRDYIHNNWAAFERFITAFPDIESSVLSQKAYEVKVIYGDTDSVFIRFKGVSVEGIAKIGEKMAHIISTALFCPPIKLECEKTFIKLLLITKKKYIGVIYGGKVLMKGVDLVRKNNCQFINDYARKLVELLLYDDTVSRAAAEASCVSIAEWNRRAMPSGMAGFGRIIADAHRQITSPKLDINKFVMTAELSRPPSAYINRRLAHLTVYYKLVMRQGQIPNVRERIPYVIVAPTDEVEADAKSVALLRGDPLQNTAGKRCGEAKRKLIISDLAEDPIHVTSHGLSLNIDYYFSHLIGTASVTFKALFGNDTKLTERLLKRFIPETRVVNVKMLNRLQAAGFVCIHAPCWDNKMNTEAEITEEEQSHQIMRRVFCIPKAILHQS
Outline: as §2

[5] = system: HCMV Strain AD169 in MRC-5 cells; assay: Viral qPCR assay HCMV (V0/V1, V2/V3), EC50; type: cell-based; details: read-out: HCMV Cell (EC50)
Outline: as §1

[6] = MRC5 cells, read-out: VZV Cell (EC50) MRC5 10%
[7] = viral qPCR assay of Example 191
[8] = Human alphaherpesvirus 3, MRC5, MRC5 cells, read-out: VZV Cell (EC50) MRC5 10%
[9] = Human alphaherpesvirus 1, MRC5, MRC5 cells, read-out: HSV1 Cell (EC50) MRC5 10%
[10] = Human betaherpesvirus 5, AD169, MRC5, viral qPCR assay of Example 191
[11] = Human alphaherpesvirus 3, MeWo, MEWO cells, read-out: VZV Cell (EC50) MEWO 10%
[12] = Human alphaherpesvirus 1, Vero, VERO cells, read-out: HSV1 Cell (EC50) VERO 10%

| SMILES | IC50 [3] | IC50 [4] | EC50 [1, 6] | EC50 ([2]; VERO cells, read-out: HSV1 Cell (EC50) VERO 10%) | EC50 [5, 7] | EC50 [1, 8] | EC50 [2, 9] | EC50 [5, 10] | EC50 [1, 11] | EC50 [2, 12] | EC50 ([2]; MRC5 cells, read-out: HSV1 Cell (EC50) MRC5 10%) |
| --- | --- | --- | --- | --- | --- | --- | --- | --- | --- | --- | --- |
| O=C(NCc1ccc(Cl)cc1)c1cc(O[C@H]2CCN3C(=O)OC[C@@H]3C2)c(C2CC2CO)cn1 (single isomer, unassigned) [Compound 156-1] | 40.3 nM | 24.9 nM | 2630 nM | 3500 nM | 1280 nM | – | – | – | – | – | – |
| CC(=O)N1CCC(Oc2cc(C(=O)NCc3ccc(Cl)cc3)ncc2-c2cc(C)ns2)CC1 [Compound 44] | 26.2 nM | 1.98 nM | – | – | – | 120 nM | 154 nM | 182 nM | – | – | – |
| CC(C)(O)C1CCN(c2cnc(C(=O)NCc3ccc(Cl)cc3)cc2O[C@H]2CCN3C(=O)OC[C@@H]3C2)C1 (single isomer, unassigned) [Compound 117-2] | 12.1 nM | 3.05 nM | 9100 nM | – | 211 nM | – | – | – | – | – | 4780 nM |
| CN(C)CCn1cc(-c2cnc(C(=O)NCc3ccc(Cl)cc3)cc2O[C@H]2CCN3C(=O)OC[C@@H]3C2)cn1 (racemic) [Compound 10] | 80.1 nM | 41.7 nM | – | – | – | – | – | 178 nM | 375 nM | 1360 nM | – |
| O=C(NCc1ccc(Cl)c(F)c1)c1cc(O[C@H]2CCN3C(=O)OC[C@@H]3C2)c(-c2cnn(C(F)F)c2)cn1 [Compound 79] | 6.9 nM | 5.19 nM | – | – | – | 209 nM | 219 nM | 103 nM | – | 196 nM | – |
| CC(=O)N1CCC(Oc2cc(C(=O)NCc3ccc(Cl)cc3)ncc2-c2nc(C)ns2)CC1 [Compound 49] | 36.3 nM | 17.6 nM | – | – | – | 794 nM | 510 nM | 155 nM | – | – | – |
| CCn1cc(-c2cnc(C(=O)NCc3ccc(Cl)cc3)cc2O[C@H]2CCN3C(=O)OC[C@@H]3C2)cn1 (racemic) [Compound 16] | 20.8 nM | 11.2 nM | – | – | – | – | – | 188 nM | 165 nM | 200 nM | – |
| O=C(NCc1ccc(Cl)cc1)c1cc(O[C@H]2CCN3C(=O)OC[C@@H]3C2)c(-c2cnn(C3COC3)c2)cn1 [Compound 36] | 4.44 nM | 2.47 nM | – | – | – | 175 nM | 146 nM | 172 nM | – | 432 nM | – |
| N#Cc1cnc(C(=O)NCc2ccc(Cl)cc2)cc1O[C@H]1CCN2C(=O)OCC[C@@H]2C1 [Compound 164] | 18.3 nM | 2.37 nM | – | – | – | 684 nM | 469 nM | 436 nM | – | – | – |

Second part, led by results:

| IC50 [3] | IC50 [4] | SMILES | EC50 [1, 6] | EC50 ([2]; VERO cells, read-out: HSV1 Cell (EC50) VERO 10%) | EC50 [5, 7] | EC50 [1, 8] | EC50 [2, 9] | EC50 [5, 10] | EC50 [1, 11] | EC50 [2, 12] | EC50 ([2]; MRC5 cells, read-out: HSV1 Cell (EC50) MRC5 10%) |
| --- | --- | --- | --- | --- | --- | --- | --- | --- | --- | --- | --- |
| 22 nM | 4.84 nM | COC1CC(c2cnc(C(=O)NCc3ccc(Cl)cc3)cc2O[C@H]2CCN3C(=O)OC[C@@H]3C2)C1 (stereo partly drawn) [Compound 110] | – | – | – | 1520 nM | 998 nM | 354 nM | – | – | – |
| 6.9 nM | 4.77 nM | O=C(NCc1ccc(Cl)cc1)c1cc(O[C@H]2CCN3C(=O)OC[C@@H]3C2)c(-c2cnn(CCO)c2)cn1 [Compound 34] | – | – | – | – | 412 nM | 71.3 nM | 190 nM | 1240 nM | – |
| 14.8 nM | 13.4 nM | CN(Cc1cnc(C(=O)NCc2ccc(Cl)cc2)cc1O[C@H]1CCN2C(=O)OC[C@@H]2C1)[C@H]1CCOC1 [Compound 143] | – | – | – | 1270 nM | – | 253 nM | – | 471 nM | – |
| 20.8 nM | 3.98 nM | CC(=O)N1CCC(Oc2cc(C(=O)NCc3ccc(Cl)cc3)ncc2-c2ccns2)CC1 [Compound 46] | – | – | – | 113 nM | 92.1 nM | 148 nM | – | – | – |
| 28.9 nM | 3.37 nM | COc1cc(-c2cnc(C(=O)NCc3ccc(Cl)cc3)cc2OC2CCN(C(C)=O)CC2)sn1 [Compound 45] | – | – | – | 128 nM | 135 nM | 455 nM | – | – | – |
| 62 nM | 54.6 nM | O=C(NCc1ccc(Cl)cc1)c1cc(O[C@H]2CCN3C(=O)OC[C@@H]3C2)c(CN2CCCC(O)C2)cn1 (mixture of isomers) [Compound 140] | – | – | – | 2560 nM | – | 855 nM | – | 4320 nM | – |
